# In patent US20210023012A1, “Solid Pharmaceutical Compositions for Treating HCV” (AbbVie Inc., priority 2019, published 2021):
# Marks after values point to notes of the source that are not given here.
# Legend:
# [1] = Phase 1 single-dose crossover: bioavailability and food effect of Compound 1/Compound 2 bilayer tablets; assay type: in vivo, human; conditions: for Cmax / AUC(0-inf) / AUC(0-t) / half-life / Tmax: human, in vivo, oral, N = 23; for Cmax / AUC(0-inf) / AUC(0-t): geometric mean; for half-life: harmonic mean; for Tmax: median
# Description: Phase 1, single-dose, four-period, randomized, complete crossover clinical trials were conducted to determine the bioavailability and food effect of the Compound 1/Compound 2 film-coated bilayer tablets. Tablets described in Table 1b were used in Regimens A, B and C, and separate tablets containing either Compound 1 or Compound 2 were used in Regimen D. Subjects took a single dose of Compound 1/Compound 2 on Day 1 of each Period. There was a washout of 4 days between doses. • i. Regimens A and D: study drugs were taken under fasting conditions. • ii. Regimen B: study drugs were taken approximately 30 minutes after start of moderate-fat breakfast (about 30% calories from fat). • iii. Regimen C: study drugs were taken approx. 30 minutes after start of high-fat breakfast (50% calories from fat). For Regimens A, B and C, the single dose consisted of three tablets of Table 1b, each tablet contains 100 mg/40 mg Compound 1/Compound 2. For Regimen D, the single dose contained three tablets of Compound 1, each of which contained 100 mg Compound 1, as well as three tablets of Compound 2, each of which contained 40 mg Compound 2. [table] [table]
# [2] = Single-dose crossover: bioavailability of Compound 1/Compound 2 mini-tablets; assay type: in vivo, human; conditions: for Cmax / AUC(0-inf) / AUC(0-t) / half-life / Tmax: human, in vivo, oral, N = 14; for Cmax / AUC(0-inf) / AUC(0-t): geometric mean; for half-life: harmonic mean; for Tmax: median
# Description: In comparison, when administered with food, the mini-tablets provided an AUC that was only 5% lower than that provided by the regular tablets. […] All of the reference AUCs of the regular tablets were measured under fasting conditions.
# 14 subjects were enrolled in this study and dosed with co-formulated Compound 1/Compound 2 in mini-tablets. One subject spilled 4 mini-tablets (out of 100-150 total mini-tablets) during dosing of Period 2 (Regimen G) and was not excluded from the analysis. The mini-tablets were prepared according to a process similar to that described in Example 2.
# [3] = Steady-state pharmacokinetics of film-coated granules in pediatric subjects by age group; assay type: in vivo, human; set-up: Ctrough: unit not given here; conditions: for Ctrough / AUC: Week 2; for AUC: human, oral, film-coated granules
# Description: The study was designed to assess the steady state AUC and to assess the pharmacokinetics (PK) of Compound 1/Compound 2 in pediatric subjects by age group. […] Subjects were enrolled in this study and dosed with film-coated granules containing Compound 1/Compound 2 as generally described above in Example 3. [table] An intensive PK sample draw was done at the Week 2 visit with blood samples taken immediately prior to dose (0 hour) and at 2, 4, 6, and 12 hours post dose.
# [4] = clinical; conditions: human, in vivo
# From the text: Target AUC was derived from the geometric mean of AUC values from a population of adult subjects who received Compound 1 and Compound 2.
# [5] = Predicted PK exposures (Pop-PK AUC) in pediatric subjects; assay type: in vivo; set-up: concentration or dose not given beside the values; conditions: human, oral
# From the text: The predicted PK exposures (“Pop-PK AUC”) of Compound 1/Compound 2 based on all PK information collected in the study (including data from other study weeks) is shown in Table 13 and Table 13a.
# [6] = Pharmacokinetic properties in healthy subjects; assay type: in vivo, human; conditions: for Tmax: oral, median, single doses
# [7] = Binding to human plasma proteins; assay type: in vitro ADME; conditions: read-out: % Bound to human plasma proteins (converted)
# [8] = Blood-to-plasma ratio; assay type: in vitro ADME; conditions: human, whole blood/plasma
# [9] = Mass balance studies with [14C] compound, single dose; assay type: in vivo, human; conditions: single dose of [14C] compound
# [10] = biological target: P-gp (Homo sapiens, UniProt P08183); assay: Substrate of transporter P-gp; assay type: in vitro ADME
# [11] = Phase 1 single-dose crossover: bioavailability and food effect of Compound 1/Compound 2 bilayer tablets; assay type: in vivo, human; conditions: film-coated vs uncoated bilayer tablets, additional studies
# [12] = Regimen A: single dose bilayer tablets 300 mg/120 mg, fasting
# [13] = Regimen B: single dose bilayer tablets 300 mg/120 mg with moderate fat breakfast
# [14] = Regimen C: single dose bilayer tablets 300 mg/120 mg with high fat breakfast
# [15] = Regimen D: single dose separate Compound 1 tablets (3 × 100 mg) and Compound 2 tablets (3 × 40 mg), fasting
# [16] = Regimen F: single dose mini-tablets 200 mg/120 mg, fasting
# [17] = Regimen G: single dose mini-tablets 200 mg/120 mg, non-fasting
# [18] = Regimen J: two Compound 1 tablets (100 mg each) and three Compound 2 tablets (40 mg each), fasting
# [19] = mean systemic exposure with moderate to high fat meals
# P-gp, sequence (P08183 whole entry): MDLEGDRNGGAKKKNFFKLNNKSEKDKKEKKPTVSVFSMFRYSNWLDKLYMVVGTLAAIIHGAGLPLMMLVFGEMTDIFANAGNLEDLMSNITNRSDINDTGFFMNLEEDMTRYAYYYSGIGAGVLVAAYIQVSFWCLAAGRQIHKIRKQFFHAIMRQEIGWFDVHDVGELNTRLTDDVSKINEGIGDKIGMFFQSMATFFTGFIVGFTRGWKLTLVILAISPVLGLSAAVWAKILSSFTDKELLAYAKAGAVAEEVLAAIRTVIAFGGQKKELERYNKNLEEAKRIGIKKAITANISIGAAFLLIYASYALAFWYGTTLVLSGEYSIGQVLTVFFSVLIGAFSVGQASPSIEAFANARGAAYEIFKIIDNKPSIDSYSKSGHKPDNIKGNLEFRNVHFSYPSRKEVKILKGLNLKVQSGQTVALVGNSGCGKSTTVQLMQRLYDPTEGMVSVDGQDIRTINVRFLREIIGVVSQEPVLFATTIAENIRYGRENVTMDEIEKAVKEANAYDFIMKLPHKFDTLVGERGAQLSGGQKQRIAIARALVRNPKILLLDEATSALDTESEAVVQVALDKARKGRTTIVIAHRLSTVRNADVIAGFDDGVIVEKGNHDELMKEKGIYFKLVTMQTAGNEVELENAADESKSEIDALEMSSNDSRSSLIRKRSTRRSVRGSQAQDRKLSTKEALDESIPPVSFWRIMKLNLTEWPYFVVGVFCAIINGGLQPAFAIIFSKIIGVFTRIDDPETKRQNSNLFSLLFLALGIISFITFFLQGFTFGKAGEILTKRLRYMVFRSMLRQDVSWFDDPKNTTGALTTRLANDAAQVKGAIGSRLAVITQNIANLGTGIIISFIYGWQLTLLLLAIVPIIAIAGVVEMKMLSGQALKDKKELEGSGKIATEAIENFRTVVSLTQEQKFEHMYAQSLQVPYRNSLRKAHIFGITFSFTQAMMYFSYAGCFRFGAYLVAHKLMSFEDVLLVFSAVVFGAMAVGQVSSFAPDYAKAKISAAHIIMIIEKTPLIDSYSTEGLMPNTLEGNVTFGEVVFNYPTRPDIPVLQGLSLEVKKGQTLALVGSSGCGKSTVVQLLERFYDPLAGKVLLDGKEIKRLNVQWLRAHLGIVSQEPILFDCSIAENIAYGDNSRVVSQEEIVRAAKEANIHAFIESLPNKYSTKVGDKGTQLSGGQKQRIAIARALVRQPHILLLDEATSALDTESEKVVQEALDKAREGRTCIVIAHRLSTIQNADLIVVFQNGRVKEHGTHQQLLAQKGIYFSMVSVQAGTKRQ
smiles,measurement,setting,value
CC(C)(C)[C@@H]1NC(=O)O[C@@H]2CCC[C@H]2OC/C=C/C(F)(F)c2nc3ccccc3nc2O[C@@H]2C[C@@H](C(=O)N[C@]3(C(=O)NS(=O)(=O)C4(C)CC4)C[C@H]3C(F)F)N(C2)C1=O [Compound 1],Effect of administration with food on bioavailability,[1]; bilayer tablets,significantly improved
same,Cmax,"[1]; Regimen A: single dose bilayer tablets 300 mg/120 mg (3 × 100 mg/40 mg), fasting",294 ng/mL
same,AUC(0-inf),[1]; [12],1150 ng·h/mL
same,AUC(0-t),[1]; [12],1150 ng·h/mL
same,half-life,[1]; [12],6 h
same,Tmax,[1]; [12],3 h
same,AUC(0-inf),[1]; [13],3040 ng·h/mL
same,AUC(0-t),[1]; [13],3040 ng·h/mL
same,Cmax,[1]; [13],937 ng/mL
same,half-life,[1]; [13],6 h
same,Tmax,[1]; [13],4 h
same,AUC(0-inf),[1]; [14],2120 ng·h/mL
same,AUC(0-t),[1]; [14],2110 ng·h/mL
same,Cmax,[1]; [14],633 ng/mL
same,half-life,[1]; [14],6.3 h
same,Tmax,[1]; [14],5 h
same,AUC(0-inf),[1]; [15],2620 ng·h/mL
same,AUC(0-t),[1]; [15],2620 ng·h/mL
same,Cmax,[1]; [15],803 ng/mL
same,half-life,[1]; [15],5.7 h
same,Tmax,[1]; [15],2 h
same,Effect of administration with food on bioavailability,[2]; co-formulated mini-tablets,significantly increased
same,Cmax,"[2]; Regimen F: single dose mini-tablets 200 mg/120 mg Compound 1/Compound 2, fasting",123 ng/mL
same,AUC(0-inf),[2]; [16],432 ng·h/mL
same,AUC(0-t),[2]; [16],428 ng·h/mL
same,half-life,[2]; [16],5.61 h
same,Tmax,[2]; [16],1 h
same,Cmax,"[2]; Regimen G: single dose mini-tablets 200 mg/120 mg Compound 1/Compound 2, non-fasting",166 ng/mL
same,AUC(0-inf),[2]; [17],704 ng·h/mL
same,AUC(0-t),[2]; [17],699 ng·h/mL
same,half-life,[2]; [17],6.42 h
same,Tmax,[2]; [17],1.75 h
same,Cmax,"[2]; Regimen J: single dose two Compound 1 tablets (100 mg each) and three Compound 2 tablets (40 mg each), fasting",212 ng/mL
same,AUC(0-inf),[2]; [18],742 ng·h/mL
same,AUC(0-t),[2]; [18],738 ng·h/mL
same,half-life,[2]; [18],5.93 h
same,Tmax,[2]; [18],1.5 h
same,AUC of mini-tablets lower than that of regular tablets (fasting),"[2]; mini-tablets with food, 200 mg Compound 1",5%
same,AUC of mini-tablets lower than that of regular tablets (fasting),"[2]; mini-tablets without food, 200 mg Compound 1 / 120 mg Compound 2, same solid dispersion formulation",41%
same,Ctrough,"[3]; 3 to <6 years old, post-adjustment 150 mg/60 mg, N 10",9.8
same,Ctrough,"[3]; 6 to <9 years old, post-adjustment 200 mg/80 mg, N 9",8.2
same,Ctrough,"[3]; 9 to <12 years old, post-adjustment 250 mg/100 mg, N 10",17.0
same,AUC,"[3]; blood, 3 to <6 years old, post-adjustment, 3 sachets, 150 mg/60 mg, N 10, read-out: AUC",6700 ng·h/mL
same,AUC,"[3]; blood, 6 to <9 years old, post-adjustment, 4 sachets, 200 mg/80 mg, N 9, read-out: AUC",5970 ng·h/mL
same,AUC,"[3]; blood, 9 to <12 years old, post-adjustment, 5 sachets, 250 mg/100 mg Compound 1/Compound 2, N 10, read-out: AUC",8670 ng·h/mL
same,AUC,"[3]; in vivo, 3 to <6 years old, pre-adjustment, 3 sachets, 120 mg/45 mg, read-out: AUC, Geometric Mean",3030 ng·h/mL
same,AUC,"[3]; in vivo, 6 to <9 years old, pre-adjustment, 4 sachets, 160 mg/60 mg, read-out: AUC, Geometric Mean",1680 ng·h/mL
same,AUC,"[3]; in vivo, 9 to <12 years old, pre-adjustment, 5 sachets, 200 mg/75 mg Compound 1/Compound 2, read-out: AUC, Geometric Mean",4070 ng·h/mL
same,Exposures in children aged 3 to <12 years vs adolescents 12 to <18 years and adults from Phase 2/3 studies,[3]; recommended doses according to body weight,comparable
same,AUC,[4],4800 ng·h/mL
same,AUC,"[5]; blood, Table 13, 3 to <6 years old, N 10, predicted",6310 ng·h/mL
same,AUC,"[5]; blood, Table 13, 6 to <9 years old, N 9, predicted",5770 ng·h/mL
same,AUC,"[5]; blood, Table 13, 9 to <12 years old, N 10, predicted from all PK information collected in the study",5180 ng·h/mL
same,AUC,"[5]; in vivo, Table 13a, 3 to <6 years old, N 10, predicted",8990 ng·h/mL
same,AUC,"[5]; in vivo, Table 13a, 6 to <9 years old, N 9, predicted",5160 ng·h/mL
same,AUC,"[5]; in vivo, Table 13a, 9 to <12 years old, N 10, predicted",8120 ng·h/mL
same,Metabolism,[6]; Biotransformation,Secondary
same,Major route of elimination,"[6]; human, in vivo",Biliary
same,Tmax,"[6]; human, in vivo, healthy subjects, read-out: Tmax of granules",3 to 4 h
same,Tmax,"[6]; human, in vivo, healthy subjects, read-out: Tmax of tablets",5 h
same,half-life,"[6]; human, in vivo, healthy subjects, read-out: t1/2 at steady-state",6 to 9 h
same,"Effect of meal (relative to fasting) on adult tablets, ↑",[6]; [19],↑ 83-163%
same,"Effect of meal (relative to fasting) on granules, ↑",[6]; [19],↑ 131-168%
same,fraction unbound,[7],0.025
same,blood plasma ratio,[8],0.57
same,% of dose excreted in faeces,[9],92.1^d %
same,% of dose excreted in urine,[9],0.7%
same,Substrate of transporter,[10],"P-gp,"
same,Impact of film-coating on bioavailability,[11],minimal impact
